Key:
Experiment in all cases: o-aminobenzaldehyde colorimetric DHDPS assay, […] nm
Type in all cases: biochemical
CsDHDPS B6 (wt CsDHDPS) [1] = molecular target: T1, CsDHDPS B6 (wt CsDHDPS) (Camelina sativa, UniProt A0ABM0Z9P4); settings: read-out: % activity remaining at 25 μM lysine
T1 construct: gene LOC104788368; ORF (365 aa, includes predicted 38-aa chloroplast transit peptide) in pUC18 in-frame with LacZ start codon; E. coli cell extract, not purified; modelled as tetramer

CsDHDPS B6 (wt CsDHDPS) [2] = molecular target: T1, CsDHDPS B6 (wt CsDHDPS); settings: 2 mM L-ASA, 35 mM pyruvate, pH 8, 37 °C; E. coli extract
CgDHDPS = molecular target: T2, CgDHDPS (Corynebacterium glutamicum, UniProt P19808); settings: 2 mM L-ASA, 35 mM pyruvate, pH 8, 37 °C; E. coli extract
T2 construct: gene dapA; ORF (301 aa) in pUC18; E. coli cell extract, not purified
T2 sequence (P19808 1-301): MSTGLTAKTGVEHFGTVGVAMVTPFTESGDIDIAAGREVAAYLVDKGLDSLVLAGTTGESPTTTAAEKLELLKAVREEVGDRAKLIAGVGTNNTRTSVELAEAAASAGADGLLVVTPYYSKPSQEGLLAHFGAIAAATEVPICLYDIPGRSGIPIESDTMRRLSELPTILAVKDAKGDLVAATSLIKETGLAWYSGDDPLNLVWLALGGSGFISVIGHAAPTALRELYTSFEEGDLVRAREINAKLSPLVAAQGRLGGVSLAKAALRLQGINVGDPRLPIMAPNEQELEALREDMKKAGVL

T1 sequence (A0ABM0Z9P4 entry or part of it): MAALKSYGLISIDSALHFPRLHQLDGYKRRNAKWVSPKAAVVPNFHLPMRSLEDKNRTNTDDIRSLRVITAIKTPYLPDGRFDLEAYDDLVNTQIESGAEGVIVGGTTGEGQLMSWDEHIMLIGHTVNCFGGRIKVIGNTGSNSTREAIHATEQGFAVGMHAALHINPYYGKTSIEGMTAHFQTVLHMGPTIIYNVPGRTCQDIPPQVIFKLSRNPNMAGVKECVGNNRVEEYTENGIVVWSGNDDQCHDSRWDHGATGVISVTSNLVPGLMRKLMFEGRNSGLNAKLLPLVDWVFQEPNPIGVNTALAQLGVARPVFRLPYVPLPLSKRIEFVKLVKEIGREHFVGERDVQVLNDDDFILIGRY

SMILES: NCCCC[C@H](N)C(=O)O [lysine]
- remaining activity at 25 µM (CsDHDPS B6 (wt CsDHDPS) [1]): 20%

SMILES: N[C@@H](CC=O)C(=O)O [L-aspartic-β-semi-aldehyde]
- o-aminobenzaldehyde colorimetric DHDPS assay, 520 nm (CsDHDPS B6 (wt CsDHDPS) [2]): using L-aspartic-β-semi-aldehyde (L-ASA) as the substrate
- o-aminobenzaldehyde colorimetric DHDPS assay, 520 nm (CgDHDPS): using L-aspartic-β-semi-aldehyde (L-ASA) as the substrate

Source: publication PMC8821502, “Engineering a feedback inhibition-insensitive plant dihydrodipicolinate synthase to increase lysine content in Camelina sativa seeds” (Transgenic Research, 2021)
